Our source for the Ki values is ChEMBL document CHEMBL1770052, “Pharmacophore elucidation for a new series of 2-aryl-pyrazolo-triazolo-pyrimidines as potent human A3 adenosine receptor antagonists” (Bioorg Med Chem Lett, 2011).

The experiment deals with T1, Adenosine receptor A3 (Homo sapiens, UniProt P0DMS8).
T1 sequence (P0DMS8 whole entry): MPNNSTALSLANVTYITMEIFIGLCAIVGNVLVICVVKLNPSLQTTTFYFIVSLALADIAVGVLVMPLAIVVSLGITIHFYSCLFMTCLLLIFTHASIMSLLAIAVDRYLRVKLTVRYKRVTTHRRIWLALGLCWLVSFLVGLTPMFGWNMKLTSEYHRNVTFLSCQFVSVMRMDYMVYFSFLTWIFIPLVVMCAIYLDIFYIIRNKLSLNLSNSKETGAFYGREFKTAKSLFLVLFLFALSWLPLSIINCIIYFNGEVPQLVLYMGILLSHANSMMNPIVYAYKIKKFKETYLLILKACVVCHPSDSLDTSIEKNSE
In words: Antagonist activity at human adenosine A3 receptor. It is filed as functional.

Take `Cn1cc2c(nc(NC(=O)N[n+]3ccccc3)n3nc(-c4ccco4)nc23)n1`: the inhibitory constant (Ki) (commonly the dissociation constant of the complex between target and ligand, obtained from inhibition or displacement) was determined as 0.01 nM.
For `O=C(Cc1ccccc1)Nc1nc2nn(CCc3ccccc3)cc2c2nc(-c3ccc(Cl)cc3)nn12`, the Ki amounted to 8.48 nM.
